Source: US7910751B2, “Heterocyclidene acetamide derivative” (Mochida Pharmaceutical Co., Ltd., priority 2005, dated 2011)

Target: T1, human TRPV1 (Homo sapiens, UniProt Q8NER1)
T1 construct: expressed in transfected cells; host or cells: CHO-K1
Assay: Measurement of capsaicin-induced Ca influx in human TRPV1 transformed CHO cell line using FDSS-6000
Format: cell-based
Settings: concentration at which the capsaicin concentration-reaction curve is shifted two times to the right, human TRPV1 transformed CHO cells
Description: [Measurement of Capsaicin-Induced Ca Influx in Human TRPV1 Transformed CHO Cell Line]
(1) Establishment of Human TRPV1 Transformed CHO Cell Line
Human vanilloid receptor 1 (hTRPV1) cDNA was cloned from a human brain. The cloned hTRPV1 cDNA was incorporated in a pCAGGS vector. The gene of the vector was introduced to a CHO-K1 cell line, thus performing transformation. Clones obtained by limiting dilution were stimulated with capsaicin. Clones with a high responsiveness were selected using an increase in the Ca concentration as an indicator. The selected clones were used for the following experiment.
(2) Measurement of Ca Influx Using FDSS-6000
The human TRPV1 transformed CHO cells were seeded in a 96-well plate (with black walls and transparent bottoms, manufactured by Greiner) at a density of 40,000 cells per well. The cells were cultured at 37° C. in 5% CO2 for one night. A loading solution of FLIPR Calcium 3 assay kit (manufactured by Molecular Devices Corporation) containing 2.5 mmol/L of probenecid was then added to each of the wells in the same amount as the culture medium, and the cells were cultured at 37° C. for 60 minutes. After the cells were stimulated with capsaicin (1 nmol/L to 1 μmol/L), the change in the Ca concentration in the cells was measured using FDSS-6000 (λex: 480 nm, λem: 540 nm, manufactured by Hamamatsu Photonics K.K.) for three minutes. The integrated values of the increase rate of the Ca concentration in the cells were calculated for a group treated with the compounds of the present invention and a group treated with a medium, thus allowing capsaicin concentration-reaction curves to be obtained. A concentration (A2 value) of each of the compounds of the present invention, at which the capsaicin concentration-reaction curve obtained when the cells were treated with the medium was shifted two times to the right side, was calculated. The inhibiting effects of the test compounds were compared using this value as an indicator.
In the case where a compound of the present invention is an agonist, when the cells are treated with the compound of the present invention prior to the capsaicin stimulation, the Ca influx is observed. In Table 1, compounds of the present invention having an A2 value of less than 100 nM are represented by A, and compounds having an A2 value of 100 nM or more are represented by B. When the A2 values of the compounds of the present invention were measured by the above-described method, the compounds have an intensity of 1 μM or less.

T1 sequence (Q8NER1 whole entry): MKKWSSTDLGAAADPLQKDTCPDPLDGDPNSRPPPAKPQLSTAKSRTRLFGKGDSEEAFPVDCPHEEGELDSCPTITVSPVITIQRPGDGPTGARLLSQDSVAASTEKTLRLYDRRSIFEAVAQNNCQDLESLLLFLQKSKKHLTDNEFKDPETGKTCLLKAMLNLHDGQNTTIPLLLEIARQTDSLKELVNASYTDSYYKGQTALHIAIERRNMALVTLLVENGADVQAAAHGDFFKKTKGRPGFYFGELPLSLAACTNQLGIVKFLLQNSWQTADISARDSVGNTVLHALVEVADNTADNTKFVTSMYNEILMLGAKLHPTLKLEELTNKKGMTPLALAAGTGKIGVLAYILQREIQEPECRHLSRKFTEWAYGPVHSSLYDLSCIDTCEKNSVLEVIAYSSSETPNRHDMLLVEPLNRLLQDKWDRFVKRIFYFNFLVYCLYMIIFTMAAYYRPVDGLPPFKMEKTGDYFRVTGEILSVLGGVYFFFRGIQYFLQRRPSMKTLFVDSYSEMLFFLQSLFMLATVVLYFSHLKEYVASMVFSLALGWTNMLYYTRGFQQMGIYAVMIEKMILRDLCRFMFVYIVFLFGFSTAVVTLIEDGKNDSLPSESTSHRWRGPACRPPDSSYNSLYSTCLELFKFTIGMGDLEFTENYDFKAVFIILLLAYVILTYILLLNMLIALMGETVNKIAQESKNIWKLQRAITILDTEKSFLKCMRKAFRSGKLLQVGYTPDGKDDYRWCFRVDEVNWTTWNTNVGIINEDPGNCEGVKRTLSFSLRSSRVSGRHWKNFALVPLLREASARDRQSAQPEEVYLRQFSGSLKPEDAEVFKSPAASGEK

Structure (SMILES): O=C(/C=C1\CCNc2cc(C(F)(F)F)ccc21)NC1CCc2cccnc2C1 (stereo not shown) [Example 49, (E)-2-(7-trifluoromethyl-2,3-dihydroquinolin-4(1H)-ylidene)-N-(5,6,7,8-tetrahydroquinolin-7-yl)acetamide]
- A2 VALUE: B (compounds having an A2 value of 100 nM or more are represented by B)

Structure (SMILES): CC(C)(F)C(=O)N1CC/C(=C\C(=O)Nc2cccc3c2CC(O)CC3)c2ccc(C(F)(F)F)cc21 (stereo not shown) [Example 96, (E)-2-(1-(2-fluoro-2-methylpropanoyl)-7-trifluoromethyl-2,3-dihydroquinolin-4(1H)-ylidene)-N-(7-hydroxy-5,6,7,8-tetrahydronaphthalen-1-yl)acetamide]
- A2 VALUE: A (compounds of the present invention having an A2 value of less than 100 nM are represented by A)

Structure (SMILES): Cc1nc(-c2ccc(Cl)cc2)sc1CNC(=O)/C=C1\CCCOc2cc(C(F)(F)F)ccc21 [Example 39, (E)-N-((2-(4-chlorophenyl)-4-methylthiazol-5-yl)methyl)-2-(8-trifluoromethyl-3,4-dihydrobenzo[b]oxepin-5(2H)-ylidene)acetamide]
- A2 VALUE: B (compounds having an A2 value of 100 nM or more are represented by B)

Structure (SMILES): O=C(/C=C1\CCCNc2cc(C(F)(F)F)ccc21)Nc1ccc2cccnc2c1 [Example 191, (E)-2-(8-trifluoromethyl-1,2,3,4-tetrahydro-5H-benzo[b]azepin-5-ylidene)-N-(quinolin-7-yl)acetamide]
- A2 VALUE: A (compounds of the present invention having an A2 value of less than 100 nM are represented by A)

Structure (SMILES): O=C(/C=C1\CCN(c2ccc(Cl)cc2)c2cc(C(F)(F)F)ccc21)NC1CCc2cccnc2C1 (stereo not shown) [Example 56, (E)-2-(1-(4-chlorophenyl)-7-trifluoromethyl-2,3-dihydro-4(1H)-ylidene)-N-(5,6,7,8-tetrahydroquinolin-7-yl)acetamide]
- A2 VALUE: A (compounds of the present invention having an A2 value of less than 100 nM are represented by A)

Structure (SMILES): O=C(/C=C1\CCN(C(=O)C2CCOCC2)c2cc(C(F)(F)F)ccc21)Nc1ccc2cccnc2c1 [Example 53, (E)-2-(7-trifluoromethyl-2,3-dihydro-1-(4-pyranoyl)quinolin-4(1H)-ylidene)-N-(quinolin-7-yl)acetamide]
- A2 VALUE: A (compounds of the present invention having an A2 value of less than 100 nM are represented by A)

Structure (SMILES): CC(C)CC(=O)N1CC/C(=C\C(=O)Nc2cccc3c2CC(O)CC3)c2ccc(C(F)(F)F)cc21 (stereo not shown) [Example 87, (E)-2-(1-(3-methylbutanoyl)-7-trifluoromethyl-2,3-dihydroquinolin-4(1H)-ylidene)-N-(7-hydroxy-5,6,7,8-tetrahydronaphthalen-1-yl)acetamide]
- A2 VALUE: A (compounds of the present invention having an A2 value of less than 100 nM are represented by A)

Structure (SMILES): Cn1ccc2ccc(NC(=O)/C=C3\CCCOc4cc(C(F)(F)F)ccc43)cc21 [Example 152, (E)-2-(8-trifluoromethyl-3,4-dihydrobenzo[b]oxepin-5(2H)-ylidene)-N-(1-methylindol-6-yl)acetamide]
- A2 VALUE: A (compounds of the present invention having an A2 value of less than 100 nM are represented by A)

Structure (SMILES): CC1(C)CC1C(=O)N1CC/C(=C\C(=O)Nc2cccc3c2CC(O)CC3)c2ccc(C(F)(F)F)cc21 (stereo not shown) [Example 109, (E)-2-(7-trifluoromethyl-2,3-dihydro-1-((2,2-dimethylcyclopropane)carbonyl)quinolin-4(1H)-ylidene)-N-(7-hydroxy-5,6,7,8-tetrahydronaphthalen-1-yl)acetamide]
- A2 VALUE: A (compounds of the present invention having an A2 value of less than 100 nM are represented by A)

Structure (SMILES): Cc1sc2cnccc2c1NC(=O)/C=C1\CCOc2cc(C(F)(F)F)ccc21 [Example 204, (E)-2-(7-trifluoromethyl-chroman-4-ylidene)-N-(2-methylthieno[2,3-c]pyridin-3-yl)acetamide]
- A2 VALUE: A (compounds of the present invention having an A2 value of less than 100 nM are represented by A)

Structure (SMILES): O=C(/C=C1\CCCOc2cc(C(F)(F)F)ccc21)NCc1ccc(-c2csnn2)cc1 [Example 37, (E)-2-(8-trifluoromethyl-3,4-dihydrobenzo[b]oxepin-5(2H)-ylidene)-N-(4-(1,2,3-thiadiazolo-4-yl)phenylmethyl)acetamide]
- A2 VALUE: B (compounds having an A2 value of 100 nM or more are represented by B)

Structure (SMILES): O=C(/C=C1\CCCOc2cc(C(F)(F)F)ccc21)Nc1ccc2c(ccn2CCO)c1 [Example 164]
- A2 VALUE: A (compounds of the present invention having an A2 value of less than 100 nM are represented by A)

Structure (SMILES): COc1cc(NC(=O)/C=C2\CCCOc3cc(C(F)(F)F)ccc32)cc(C(F)(F)F)c1 [Example 135, (E)-2-(8-trifluoromethyl-3,4-dihydrobenzo[b]oxepin-5(2H)-ylidene)-N-(3-methoxy-5-(trifluoromethyl)phenyl)acetamide]
- A2 VALUE: A (compounds of the present invention having an A2 value of less than 100 nM are represented by A)

Structure (SMILES): O=C(/C=C1\CCN(C(=O)C2CCCC2)c2cc(C(F)(F)F)ccc21)Nc1ccc2cccnc2c1 [Example 73, (E)-2-(1-cyclopentanecarbonyl-7-trifluoromethyl-2,3-dihydroquinolin-4(1H)-ylidene)-N-(quinolin-7-yl)acetamide]
- A2 VALUE: A (compounds of the present invention having an A2 value of less than 100 nM are represented by A)

Structure (SMILES): O=CN1CC/C(=C\C(=O)Nc2cccc3c2CC(O)CC3)c2ccc(C(F)(F)F)cc21 (stereo not shown) [Example 114, (E)-2-(1-formyl-7-trifluoromethyl-2,3-dihydroquinolin-4(1H)-ylidene)-N-(7-hydroxy-5,6,7,8-tetrahydronaphthalen-1-yl)acetamide]
- A2 VALUE: A (compounds of the present invention having an A2 value of less than 100 nM are represented by A)

Structure (SMILES): O=C(/C=C1\CCN(C(=O)c2ccco2)c2cc(C(F)(F)F)ccc21)Nc1cccc2c1CC(O)CC2 (stereo not shown) [Example 111, (E)-2-(7-trifluoromethyl-2,3-dihydro-1-(2-furancarbonyl)quinolin-4(1H)-ylidene)-N-(7-hydroxy-5,6,7,8-tetrahydronaphthalen-1-yl)acetamide]
- A2 VALUE: A (compounds of the present invention having an A2 value of less than 100 nM are represented by A)

Structure (SMILES): O=C(/C=C1\CC2(CCC2)Oc2cc(C(F)(F)F)ccc21)Nc1cccc2c1CC(O)CN2 (stereo not shown) [Example 252, (E)-N-(3-hydroxy-1,2,3,4-tetrahydroquinolin-5-yl)-2-(7-trifluoromethyl-2,2-cyclobutylchroman-4-ylidene)acetamide]
- A2 VALUE: A (compounds of the present invention having an A2 value of less than 100 nM are represented by A)

Structure (SMILES): O=C(/C=C1\CCCOc2cc(C(F)(F)F)ccc21)Nc1ccc2nccnc2c1 [Example 12, (E)-2-(8-trifluoromethyl-3,4-dihydrobenzo[b]oxepin-5(2H)-ylidene)-N-(quinoxalin-6-yl)acetamide]
- A2 VALUE: A (compounds of the present invention having an A2 value of less than 100 nM are represented by A)

Structure (SMILES): O=C(/C=C1\CCCOc2cc(C(F)(F)F)ccc21)NC(c1ccccc1)c1ccccn1 (stereo not shown) [Example 31, (E)-2-(8-trifluoromethyl-3,4-dihydrobenzo[b]oxepin-5(2H)-ylidene)-N-(phenyl(pyridin-2-yl)methyl)acetamide]
- A2 VALUE: B (compounds having an A2 value of 100 nM or more are represented by B)

Structure (SMILES): O=C(/C=C1\CCCOc2cc(C(F)(F)F)ccc21)NCc1ccc2c(c1)OCCO2 [Example 32, (E)-2-(8-trifluoromethyl-3,4-dihydrobenzo[b]oxepin-5(2H)-ylidene)-N-((2,3-dihydrobenzo[b][1,4]dioxin-6-yl)methyl)acetamide]
- A2 VALUE: B (compounds having an A2 value of 100 nM or more are represented by B)

Structure (SMILES): CC(C)CC(=O)N1CC/C(=C\C(=O)Nc2ccc3cccnc3c2)c2ccc(C(F)(F)F)cc21 [Example 77, (E)-2-(1-(3-methylbutanoyl)-7-trifluoromethyl-2,3-dihydroquinolin-4(1H)-ylidene)-N-(quinolin-7-yl)acetamide]
- A2 VALUE: A (compounds of the present invention having an A2 value of less than 100 nM are represented by A)

Structure (SMILES): O=C(/C=C1\CCN(C(=O)C2CC(F)(F)C2)c2cc(C(F)(F)F)ccc21)Nc1cccc2c1CC(O)CC2 (stereo not shown) [Example 118, (E)-2-(1-(3,3-difluorocyclobutanecarbonyl)-7-trifluoromethyl-2,3-dihydroquinolin-4(1H)-ylidene)-N-(7-hydroxy-5,6,7,8-tetrahydronaphthalen-1-yl)acetamide]
- A2 VALUE: A (compounds of the present invention having an A2 value of less than 100 nM are represented by A)
